In article PMC8670039, “Flavonoids kaempferol and quercetin are nuclear receptor 4A1 (NR4A1, Nur77) ligands and inhibit rhabdomyosarcoma cell and tumor growth” (Journal of Experimental & Clinical Cancer Research : CR, 2021):

Target: nuclear receptor 4A1 (NR4A1, Nur77) (Homo sapiens, UniProt P22736)
Experiment: Trp fluorescence quenching direct binding; also bis-ANS competitive displacement (Ki […])

Sequence of nuclear receptor 4A1 (NR4A1, Nur77) (P22736 351-598 limits assumed): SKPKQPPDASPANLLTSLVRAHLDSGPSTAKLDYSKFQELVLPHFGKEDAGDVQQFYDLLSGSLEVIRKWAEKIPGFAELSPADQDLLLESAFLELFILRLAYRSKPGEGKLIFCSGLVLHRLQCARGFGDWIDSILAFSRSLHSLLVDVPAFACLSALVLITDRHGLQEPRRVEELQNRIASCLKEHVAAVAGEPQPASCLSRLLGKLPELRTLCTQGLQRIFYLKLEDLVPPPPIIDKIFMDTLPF

**Q.** How did the Kd turn out when O=c1c(O)c(-c2ccc(O)c(O)c2)oc2cc(O)cc(O)c12 [Q, quercetin] was run?
**A.** The Kd was 0.93 µM.
